According to patent publication US20190275324A1, “METHOD FOR TREATING OR PREVENTING A SICKLE-CELL DISEASE AND SYMPTOMS THEREOF” (DIAVEIN, priority 2016, published 2019):

Columns and labels:
[1] = system: patients with a severe vaso-occlusive crisis associated with sickle cell disease; assay: Clinical study of VEST in combination with NSAID for relief of pain in vaso-occlusive crisis (Example 6), 10-cm VAS for pain; type: in vivo, human; conditions: all groups also given Perfalgan and Tramadol
From the text: The objective of the clinical study was to assess the efficacy of VEST in combination with non-steroid anti-inflammatory drugs to manage pain in adult and paediatric patients experimenting a severe vaso-occlusive crisis associated with sickle cell disease.
27 patients suffering from a sickle-cell disease and experimenting a severe vaso-occlusive crisis, with a pain score of at least 6 in the visual analog scale for pain (VAS pain), were enrolled in the study. The enrolled patients comprised 16 adults (of 19 to 35 years) and 11 children (of 8 to 17 years). 8 patients were of HbSS genotype, 19 patients were of HbSC genotype. The enrolled patients comprised 18 male subjects and 9 female subjects.
After their admission at the hospital, 15 patients received pain killer (Perfalgan) and (Tramadol) drugs and the NSAID Diclofenac and were subjected to VEST treatment for 4 hours, with two electrodes under each calf and two electrodes under each arm of the patient.
2 patients received Pain killer (Perfalgan) and (Tramadol) drug and were subjected to VEST treatment for 4 hours, with two electrodes under each calf and two electrodes under each arm of the patient. These patients were not administered with any NSAID. […]
Pain change in each patient was assessed with a 10-cm visual analog scale (VAS) for pain (e.g. as shown in FIG. 4) every two hours, during 6 hours after the beginning of VEST.

[2] = system: patients with acute vaso-occlusive crisis; conditions: after 4 hours; patients treated with morphine, Weiner et al.; cited from earlier work

Structure (SMILES) | mean pain score in VAS ([1]; after 4 hours) | mean pain score in VAS ([1]; after 6 hours) | mean pain score in VAS [2]
O=C(O)Cc1ccccc1Nc1c(Cl)cccc1Cl [NSAID alone, Diclofenac] | 6 cm | 6 cm | 
CN1CC[C@]23c4c5ccc(O)c4O[C@H]2[C@@H](O)C=C[C@H]3[C@H]1C5 [morphine] |  |  | higher than 6 cm
